Results: ChEMBL document CHEMBL4325863, “Investigating alkyl nitrates as nitric oxide releasing precursors of multitarget acetylcholinesterase-monoamine oxidase B inhibitors” (Eur J Med Chem, 2019)
pIC50: −log10 of the molar value.

Key:
[1] = target: T1, Amine oxidase [flavin-containing] B (Homo sapiens, UniProt P27338); test: Inhibition of recombinant human MAO-B expressed in baculovirus infected insect cell microsomes using kynuramine as substrate measured after 30 mins by fluorescence based assay
T1 sequence (P27338 whole entry): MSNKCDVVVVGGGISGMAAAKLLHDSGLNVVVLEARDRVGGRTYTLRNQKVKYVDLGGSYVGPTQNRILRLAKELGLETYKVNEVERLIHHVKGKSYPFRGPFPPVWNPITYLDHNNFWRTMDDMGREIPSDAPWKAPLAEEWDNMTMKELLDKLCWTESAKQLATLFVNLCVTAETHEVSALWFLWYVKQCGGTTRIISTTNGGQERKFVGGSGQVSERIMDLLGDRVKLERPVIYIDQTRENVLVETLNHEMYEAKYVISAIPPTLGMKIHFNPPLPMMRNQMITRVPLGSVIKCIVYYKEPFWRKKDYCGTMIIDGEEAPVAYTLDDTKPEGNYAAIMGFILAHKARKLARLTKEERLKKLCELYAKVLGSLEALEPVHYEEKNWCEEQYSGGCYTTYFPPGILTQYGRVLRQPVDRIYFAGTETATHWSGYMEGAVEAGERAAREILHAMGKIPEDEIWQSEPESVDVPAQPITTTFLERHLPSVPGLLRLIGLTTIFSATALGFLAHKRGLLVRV

[2] = target: Cholinesterase (Equus caballus) (UniProt P81908); test: Inhibition of equine serum BuChE at 10 uM using butyrylthiocholine iodide as substrate by Ellman's method relative to control
Cholinesterase (Equus caballus), sequence (P81908 whole entry): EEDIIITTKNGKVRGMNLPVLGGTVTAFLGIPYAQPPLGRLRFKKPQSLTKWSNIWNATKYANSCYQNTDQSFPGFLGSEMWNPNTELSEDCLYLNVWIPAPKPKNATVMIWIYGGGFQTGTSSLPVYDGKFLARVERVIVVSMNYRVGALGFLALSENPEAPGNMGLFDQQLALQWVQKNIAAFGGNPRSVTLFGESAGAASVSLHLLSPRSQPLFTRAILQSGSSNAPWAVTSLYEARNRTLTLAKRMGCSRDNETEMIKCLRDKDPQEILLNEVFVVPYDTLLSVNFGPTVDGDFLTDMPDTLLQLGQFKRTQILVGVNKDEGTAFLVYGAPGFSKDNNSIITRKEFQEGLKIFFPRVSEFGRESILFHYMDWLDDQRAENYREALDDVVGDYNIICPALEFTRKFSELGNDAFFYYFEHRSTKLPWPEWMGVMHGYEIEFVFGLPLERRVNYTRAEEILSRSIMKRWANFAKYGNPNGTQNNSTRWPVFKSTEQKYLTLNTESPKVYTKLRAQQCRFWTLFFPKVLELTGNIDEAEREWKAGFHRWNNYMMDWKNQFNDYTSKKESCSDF

Acetylcholinesterase [3] = target: Acetylcholinesterase (Electrophorus electricus, UniProt O42275); test: Inhibition of electric eel AChE using acetylthiocholine iodide as substrate by Ellman's method
Acetylcholinesterase (Electrophorus electricus, UniProt O42275), sequence (O42275 whole entry): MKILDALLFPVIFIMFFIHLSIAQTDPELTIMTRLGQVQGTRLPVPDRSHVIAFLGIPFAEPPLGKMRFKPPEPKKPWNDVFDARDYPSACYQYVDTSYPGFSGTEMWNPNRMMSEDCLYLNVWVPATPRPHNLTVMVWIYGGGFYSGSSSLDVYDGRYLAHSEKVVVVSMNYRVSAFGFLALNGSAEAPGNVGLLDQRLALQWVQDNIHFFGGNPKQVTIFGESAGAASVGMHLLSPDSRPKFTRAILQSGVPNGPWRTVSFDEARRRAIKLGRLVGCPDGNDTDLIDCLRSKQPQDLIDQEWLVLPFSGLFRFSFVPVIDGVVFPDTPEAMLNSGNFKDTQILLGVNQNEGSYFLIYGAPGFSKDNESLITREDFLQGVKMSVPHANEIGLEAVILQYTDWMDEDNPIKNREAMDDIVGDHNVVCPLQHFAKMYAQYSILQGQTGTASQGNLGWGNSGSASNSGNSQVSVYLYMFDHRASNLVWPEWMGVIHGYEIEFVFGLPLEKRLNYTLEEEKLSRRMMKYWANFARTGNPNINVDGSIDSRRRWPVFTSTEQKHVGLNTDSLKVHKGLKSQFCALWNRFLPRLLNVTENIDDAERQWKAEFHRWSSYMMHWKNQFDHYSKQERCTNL

[4] = target: T2, Amine oxidase [flavin-containing] A (Homo sapiens, UniProt P21397); test: Inhibition of recombinant human MAO-A expressed in baculovirus infected insect cell microsomes at 10 uM using kynuramine as substrate measured after 30 mins by fluorescence based assay relative to control; conditions: 0.5 h
T2 sequence (P21397 whole entry): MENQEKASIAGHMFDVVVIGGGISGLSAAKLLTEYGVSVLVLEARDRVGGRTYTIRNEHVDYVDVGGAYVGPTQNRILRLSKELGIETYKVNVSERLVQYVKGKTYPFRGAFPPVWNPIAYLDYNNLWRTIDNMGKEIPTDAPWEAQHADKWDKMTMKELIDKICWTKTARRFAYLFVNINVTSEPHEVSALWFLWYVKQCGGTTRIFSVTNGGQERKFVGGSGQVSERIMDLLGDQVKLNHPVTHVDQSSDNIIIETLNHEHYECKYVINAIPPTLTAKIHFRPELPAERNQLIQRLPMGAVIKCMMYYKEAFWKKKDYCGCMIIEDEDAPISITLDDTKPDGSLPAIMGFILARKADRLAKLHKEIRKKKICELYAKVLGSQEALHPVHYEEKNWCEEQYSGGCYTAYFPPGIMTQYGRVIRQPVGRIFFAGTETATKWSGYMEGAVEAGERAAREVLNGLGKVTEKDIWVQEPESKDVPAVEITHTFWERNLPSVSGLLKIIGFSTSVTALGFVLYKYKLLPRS

[5] = Apparent permeability from apical to basolateral side in MDCK2-MDR1 cells by UV-Visible spectrophotometric method; assay type: ADME, cell-based, Canis lupus familiaris; conditions: dog, MDCK-MDR1
SH-SY5Y [6] = test: Cytotoxicity against human SH-SY5Y cells assessed as reduction in cell viability after 24 hrs by MTT assay; assay type: cell-based
Cholinesterase [7] = target: Cholinesterase (Equus caballus, UniProt P81908); test: Inhibition of equine serum BuChE using butyrylthiocholine iodide as substrate by Ellman's method
Cholinesterase (Equus caballus, UniProt P81908), sequence (P81908 whole entry): as the sequence (P81908 whole entry) above

[8] = target: T2, Amine oxidase [flavin-containing] A; test: Inhibition of recombinant human MAO-A expressed in baculovirus infected insect cell microsomes using kynuramine as substrate measured after 30 mins by fluorescence based assay
[9] = Apparent permeability from basolateral to apical side in MDCK2-MDR1 cells by UV-Visible spectrophotometric method; assay type: ADME, cell-based, Canis lupus familiaris; conditions: dog, MDCK-MDR1
[10] = Efflux ratio of apparent permeability in MDCK2-MDR1 cells by UV-Visible spectrophotometric method; assay type: ADME, cell-based, Canis lupus familiaris; conditions: dog, MDCK-MDR1
Acetylcholinesterase [11] = target: Acetylcholinesterase (Homo sapiens, UniProt P22303); test: Inhibition of human recombinant AChE using acetylthiocholine iodide as substrate by Ellman's method
Acetylcholinesterase (Homo sapiens, UniProt P22303), sequence (P22303 whole entry): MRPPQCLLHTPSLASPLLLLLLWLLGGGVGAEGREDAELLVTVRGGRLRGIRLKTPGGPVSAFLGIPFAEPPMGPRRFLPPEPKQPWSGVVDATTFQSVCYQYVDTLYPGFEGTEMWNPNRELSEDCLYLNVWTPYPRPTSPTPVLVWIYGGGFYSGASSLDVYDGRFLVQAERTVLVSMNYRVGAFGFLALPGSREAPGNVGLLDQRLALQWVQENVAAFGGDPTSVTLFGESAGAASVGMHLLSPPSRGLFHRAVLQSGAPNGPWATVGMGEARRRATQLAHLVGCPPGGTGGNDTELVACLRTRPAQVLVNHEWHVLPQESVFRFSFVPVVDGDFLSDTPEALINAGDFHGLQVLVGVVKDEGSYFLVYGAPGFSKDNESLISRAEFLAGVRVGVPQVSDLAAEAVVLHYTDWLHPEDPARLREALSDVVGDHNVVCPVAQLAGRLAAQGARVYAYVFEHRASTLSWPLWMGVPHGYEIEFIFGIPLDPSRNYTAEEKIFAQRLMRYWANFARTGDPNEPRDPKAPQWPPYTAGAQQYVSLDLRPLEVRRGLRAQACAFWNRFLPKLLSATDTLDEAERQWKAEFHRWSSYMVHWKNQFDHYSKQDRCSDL

SH-SY5Y [12] = test: Neuroprotection against rotenone/H2O2-induced cell death in human SH-SY5Y cells assessed as increase in cell viability preincubated for 24 hrs followed by rotenone/H2O2 addition measured after 24 hrs by MTT assay; assay type: functional, cell-based
[13] = Selectivity index, ratio of IC50 for equine serum BuChE to IC50 for electric eel AChE
Homo sapiens = organism: Homo sapiens; test: Selectivity index, ratio of IC50 for recombinant human MAO-A to IC50 for recombinant human MAO-B
Cholinesterase [14] = target: T3, Cholinesterase (Homo sapiens, UniProt P06276); test: Inhibition of human serum BuChE using butyrylthiocholine iodide as substrate by Ellman's method
T3 sequence (P06276 whole entry): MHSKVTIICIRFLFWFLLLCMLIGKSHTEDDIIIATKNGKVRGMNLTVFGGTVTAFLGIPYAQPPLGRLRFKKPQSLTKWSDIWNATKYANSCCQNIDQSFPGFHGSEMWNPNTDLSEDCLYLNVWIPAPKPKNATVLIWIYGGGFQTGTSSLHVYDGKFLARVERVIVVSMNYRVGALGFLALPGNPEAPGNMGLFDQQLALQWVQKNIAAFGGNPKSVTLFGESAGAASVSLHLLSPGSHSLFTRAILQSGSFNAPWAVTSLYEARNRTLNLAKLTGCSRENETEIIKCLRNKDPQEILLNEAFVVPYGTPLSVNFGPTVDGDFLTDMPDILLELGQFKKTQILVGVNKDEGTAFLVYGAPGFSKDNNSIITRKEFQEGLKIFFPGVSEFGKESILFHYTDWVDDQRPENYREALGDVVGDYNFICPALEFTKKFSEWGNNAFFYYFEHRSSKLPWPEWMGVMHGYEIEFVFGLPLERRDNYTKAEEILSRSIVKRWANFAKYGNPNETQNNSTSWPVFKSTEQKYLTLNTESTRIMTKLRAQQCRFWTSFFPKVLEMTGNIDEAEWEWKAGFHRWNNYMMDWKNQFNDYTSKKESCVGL

[15] = target: T1, Amine oxidase [flavin-containing] B; test: Inhibition of recombinant human MAO-B expressed in baculovirus infected insect cell microsomes using kynuramine as substrate measured after 30 mins by spectrophotometric assay
[16] = target: T1, Amine oxidase [flavin-containing] B; test: Inhibition of recombinant human MAO-B expressed in baculovirus infected insect cell microsomes at 10 uM using kynuramine as substrate measured after 30 mins by fluorescence based assay relative to control; conditions: 0.5 h
[17] = Drug metabolism in PBS buffer assessed as nitric oxide release at 150 uM in presence of cysteine by Griess reagent based UV-Visible spectrophotometric method; conditions: TDE = time-dependent effect
[18] = Drug metabolism in pH 7.4 PBS buffer assessed as 7-({1-[3-(Hydroxymethyl)benzyl]piperidin-4-yl}methoxy)-3,4-dimethyl-2H-chromen-2-one formation at 100 uM up to 30 hrs in presence of cysteine by RP-HPLC method
[19] = Half life in human serum at 100 uM by RP-HPLC method; assay type: ADME, cell-free
[20] = Drug metabolism in pH 7.4 PBS buffer assessed as 7-({1-[3-(Hydroxymethyl)benzyl]piperidin-4-yl}methoxy)-3,4-dimethyl-2H-chromen-2-one formation at 100 uM up to 30 hrs in presence of glutathione by RP-HPLC method
[21] = Drug metabolism in pH 7.4 PBS buffer assessed as 7-({1-[3-(Hydroxymethyl)benzyl]piperidin-4-yl}methoxy)-3,4-dimethyl-2H-chromen-2-one formation at 100 uM after 24 hrs by RP-HPLC method
Cholinesterase [22] = target: T3, Cholinesterase; test: Inhibition of human serum BuChE at 10 uM using butyrylthiocholine iodide as substrate by Ellman's method relative to control
[23] = Drug metabolism in pH 7.4 PBS buffer assessed as 7-{[1-(3-Hydroxypropyl)piperidin-4-yl]methoxy}-3,4-dimethyl-2H-chromen-2-one formation at 100 uM up to 30 hrs in presence of glutathione by RP-HPLC method
[24] = Drug metabolism in pH 7.4 PBS buffer assessed as 7-{[1-(3-Hydroxypropyl)piperidin-4-yl]methoxy}-3,4-dimethyl-2H-chromen-2-one formation at 100 uM up to 30 hrs in presence of cysteine by RP-HPLC method
[25] = Drug metabolism in pH 7.4 PBS buffer assessed as 7-{[1-(3-Hydroxypropyl)piperidin-4-yl]methoxy}-3,4-dimethyl-2H-chromen-2-one formation at 100 uM after 24 hrs by RP-HPLC method

Row | SMILES | pIC50 [1] | inhibition [2] | pIC50 (Acetylcholinesterase [3]) | inhibition at 10 µM [4] | pIC50 (Cholinesterase [7]) | pIC50 [8] | also measured
1 | CN(C)Cc1cccc(COc2ccc3c(CO)cc(=O)oc3c2)c1 | 7.27 | 36% | 5.23 | 42% |  |  | 
2 | Cc1c(C)c2ccc(OCC3CCN(Cc4cccc(CO)c4)CC3)cc2oc1=O | 7.12 |  | 6.00 |  | 5.89 | 5.72 | Papp A→B [5]: 19.8 ×10⁻⁶ cm/s; Activity (SH-SY5Y [6]): 43 µM; Papp B→A [9]: 21.5 ×10⁻⁶ cm/s; efflux ratio [10]: 1.09; pIC50 (Acetylcholinesterase [11]): 5.85; Activity (SH-SY5Y [12]): Dose-dependent effect
3 | Cc1c(C)c2ccc(OCC3CCN(Cc4ccc(CCO)cc4)CC3)cc2oc1=O | 6.92 | 41% | 5.92 |  |  | 5.77 | 
4 | Cc1c(C)c2ccc(OCC3CCN(Cc4cccc(OCCCO)c4)CC3)cc2oc1=O | 6.11 |  | 5.74 |  | 6.74 | 6.26 | Ratio IC50 [13]: 0.1; Ratio IC50 (Homo sapiens): 0.7; pIC50 (Acetylcholinesterase [11]): 6.08; pIC50 (Cholinesterase [14]): 6.13
5 | Cc1cc2ccc(OCC3CCN(Cc4cccc(CO)c4)CC3)cc2oc1=O | 5.96 |  | 5.49 |  | 6.04 | 5.41 | 
6 | CN(C)Cc1ccc(COc2ccc3c(CO)cc(=O)oc3c2)cc1 | 7.11 | 43% | 5.35 | 20% |  |  | pIC50 [15]: 7.13
7 | Cc1cc2ccc(OCC3CCN(Cc4ccc(CO)cc4)CC3)cc2oc1=O | 5.51 |  | 5.52 | 43% | 5.09 |  | 
8 | Cc1c(C)c2ccc(OCc3cccc(CN4CCC(CO)CC4)c3)cc2oc1=O | 6.49 |  | 5.54 | 23% | 6.00 |  | 
9 | O=c1ccc2ccc(OCC3CCCN(CCCO)C3)cc2o1 (stereo not drawn) |  |  | 5.46 | 14% | 5.77 |  | inhibition at 10 µM [16]: 42%
10 | Cc1cc(=O)oc2cc(OCC3CCN(Cc4ccc(CO)cc4)CC3)ccc12 | 6.22 | 45% | 5.80 |  |  | 4.96 | 
11 | Cc1cc(=O)oc2cc(OCC3CCN(Cc4cccc(CO)c4)CC3)ccc12 | 6.32 |  | 5.80 |  | 5.72 | 5.46 | 
12 | Cc1c(C)c2ccc(OCCC3CCN(CCCO)CC3)cc2oc1=O |  | 39% | 6.14 | 35% |  |  | inhibition at 10 µM [16]: 31%
13 | CN(C)Cc1cc(=O)oc2cc(OCc3cccc(CO)c3)ccc12 | 5.96 | 35% | 5.36 | 21% |  |  | 
14 | Cc1c(C)c2ccc(OCC3CCCN(Cc4ccc(CO)cc4)C3)cc2oc1=O (stereo not drawn) | 7.12 |  | 5.92 |  | 5.07 | 5.96 | 
15 | Cc1c(C)c2ccc(OCC3CCN(Cc4cccc(CO[N+](=O)[O-])c4)CC3)cc2oc1=O | 7.29 |  |  |  |  | 6.64 | Drug metabolism [17]: Tde; Papp A→B [5]: 12.4 ×10⁻⁶ cm/s; Drug metabolism [18]: Metabolite detected; Activity (SH-SY5Y [6]): 36 µM; Papp B→A [9]: 16.5 ×10⁻⁶ cm/s; efflux ratio [10]: 1.33; pIC50 (Acetylcholinesterase [11]): 5.89; half-life at 100 µM [19]: 36.8 h; Activity (SH-SY5Y [12]): Dose-dependent effect; Drug metabolism [20]: Metabolite detected; Drug metabolism [21]: 7%
16 | Cc1c(C)c2ccc(OCC3CCCN(CCCO)C3)cc2oc1=O (stereo not drawn) | 5.82 | 26% | 5.74 | 41% |  |  | 
17 | CN(C)Cc1cc(=O)oc2cc(OCc3ccc(CO)cc3)ccc12 | 6.20 |  | 5.89 | 23% | 4.96 |  | pIC50 [15]: 6.11
18 | Cc1c(C)c2ccc(OCC3CCN(CCCO)CC3)cc2oc1=O | 6.32 | 30% | 5.89 | 44% |  |  | Papp A→B [5]: 9.92 ×10⁻⁶ cm/s; inhibition (Cholinesterase [22]): < 5%; Activity (SH-SY5Y [6]): > 100 µM; Papp B→A [9]: 14.9 ×10⁻⁶ cm/s; efflux ratio [10]: 1.5; pIC50 (Acetylcholinesterase [11]): 6.05; Activity (SH-SY5Y [12]): Dose-dependent effect
19 | Cc1c(C)c2ccc(OCC3CCN(CCCO[N+](=O)[O-])CC3)cc2oc1=O | 6.60 |  |  | 36% |  |  | Drug metabolism [23]: Metabolite not detected; Drug metabolism [17]: Tde; Papp A→B [5]: 4.96 ×10⁻⁶ cm/s; inhibition (Cholinesterase [22]): < 5%; Drug metabolism [24]: Metabolite not detected; Drug metabolism [25]: Metabolite detected; Activity (SH-SY5Y [6]): > 100 µM; Papp B→A [9]: 15.7 ×10⁻⁶ cm/s; efflux ratio [10]: 3.17; pIC50 (Acetylcholinesterase [11]): 6.07; half-life at 100 µM [19]: 23 h; Activity (SH-SY5Y [12]): Dose-dependent effect
20 | Cc1c(C)c2ccc(OCC3CCN(Cc4ccc(CO)cc4)CC3)cc2oc1=O | 7.54 |  | 6.00 |  | 5.06 | 5.85 | pIC50 [15]: 7.41; Ratio IC50 (Homo sapiens): 48
21 | Cc1c(C)c2ccc(OCC3CCN(CCCCO)CC3)cc2oc1=O | 5.44 |  | 6.30 | 30% | 5.08 |  | 
22 | Cc1c(C)c2ccc(OCC3CCCN(Cc4cccc(CO)c4)C3)cc2oc1=O (stereo not drawn) | 6.96 |  | 6.05 |  | 5.57 | 5.66 | 
